Assays:
physchem = format: physicochemical; details: pH 7.4
Protocol: The plate was agitated for 2 h at 22°C and 500 rpm. […] The different layers were analyzed to obtain a logD value.

[1] = format: in vitro ADME; details: pH 7.4
Protocol: The permeability of the compounds was assessed via a PAMPA using a 96-well multiscreen filter plate ([…]). The filter plate was coated with 5% hexadecane in hexane and was allowed to dry before starting the assay. Lucifer yellow was added to the apical side of the filter plate in each well containing test compound solutions prepared in DMSO. A solution of each compound was diluted into phosphate buffer at pH 7.4 (final concentration = 1 μg/mL) and was added to the apical portion of the donor plate. The acceptor plate was filled with blank buffer (pH 7.4). The plates were slotted into each other and agitated at 80 rpm for 4 h at 22°C. Samples from donor and theoretical equilibrium wells were matrix-matched with blank phosphate buffer at pH 7.4. Samples were treated with ACN containing IS (carbamazepine, 23.6 ng/mL) and were submitted for LC-MS/MS analysis on an Agilent Rapid Resolution HPLC and AB Sciex 4500 MS. […] [Wohnsland and Faller, 2001]; [Jung et al., 2006]). where, VA is the volume of the acceptor compartment (0.25 cm^3), VD is the volume of the donor compartment (0.15 cm^3), A is the accessible filter area (0.024 cm^2), and t is the incubation time (s). The peak areas of the samples were used to determine the Papp of each compound using Eq. 3. Papp=C × -ln(1-Acceptor […]/Donor […])

in vitro = in vitro ADME; details: for EH (hepatic extraction ratio) Human / EH (hepatic extraction ratio) Mouse: 0.1 M; for half-life at 0.1 M / microsomal CLint at 0.1 M: microsomes
Protocol: RMB041, -043, and -073 ([…]) prepared in DMSO were incubated separately with 530 μL mouse and human microsomes (0.4 mg/mL) at 37°C with the cofactor NADPH (1 mM). Compounds were assessed at 0 and 60 min. The reaction was stopped by the addition of ice-cold ACN containing IS (carbamazepine, 23.6 ng/mL). The samples were analyzed via LC-MS/MS using the instrumentation and conditions described above. The in vitro half-life, intrinsic clearance rate, and hepatic extraction ratio were predicted using results from this assay in the following equations ([Obach, 1999]). […] EH=Fu × CLint/QH+Fu × CLint Metabolic stability was assessed as the compound's depletion from a starting concentration of […] over 1 h in mouse and human microsomal fractions. The in vitro half-life can be predicted from this assay. The linear regression from a graph relating natural logarithmic percentage of the compound remaining versus the incubation time was used to calculate the half-life, CLint, and EH.

in vivo = experiment: in vivo; design: species or system male C57BL/6 mice; details: for Vd / clearance / half-life / t1/2 / Cmax / Tmax: male, C57BL/6, mouse; for AUC: mouse
Protocol: Healthy male C57BL/6 mice, 12 to 16 weeks old, weighing approximately 30 g, were maintained at the animal facility of the University of Cape Town. Mice were fed a standard laboratory diet and water ad libitum. Mice were housed in 27 × 21 × 18 cm cages, under controlled environmental conditions (26 ± 1°C with 12-h light/dark cycles). Mice were acclimatized to their experimental environment for 4 days before the experiment started.
Clear suspensions of RMB041, -043, and -073 were prepared in […] hydroxypropyl methylcellulose and administered via oral gavage (20 mg/kg, volume = 200 μL, n = 3). Blood samples (20 μL) were collected on ice in heparinized microvials via tail bleeding at 0, 0.5, 1, 3, 5, 8, 10, 24, and 48 h following drug administration and stored at -80°C.
Solutions for IV injection (5 mg/kg) were prepared using a mixture of dimethyl acetamide, polyethylene glycol, and polypropylene glycol (1:3:6, v/v) and were injected into the penile vein (80 μL) following anesthesia of mice with intraperitoneal injection (IP) of ketamine/xylazine (75–100 mg/kg + 10 mg/kg; n = 3). Blood samples were collected on ice in heparinized microvials via tail bleeding at 0.083, 0.5, 1, 3, 5, 8, 10, 24, and 48 h following drug administration and stored at -80°C.
Mouse whole-blood samples (20 μL) were each treated with 100 μL ACN containing IS (carbamazepine, 1 μg/mL) to precipitate blood proteins, and were subjected to vigorous vortexing for 1 min and centrifugation at 5590 × g for 5 min. The supernatant layer containing compound (50 μL) was removed from each sample and added to the analysis plate. Thereafter, samples were dried down under nitrogen. A solution of ACN and water (1:1, v:v, 100 μL) was added to each well, and samples were analyzed via LC-MS/MS.
To determine compound concentrations in mouse whole-blood samples, seven calibration samples (range 0.980 to 4000 ng/mL), as well as low-, medium-, and high-concentration quality control (QC) samples (3, 1600, and 3200 ng/mL, respectively) were prepared in mouse blood and subjected to ACN precipitation as described above, in triplicate. Calibration, QC, and test samples were analyzed via LC-MS/MS. Calibration samples were used to plot standard curves, from which test sample concentrations were calculated via quadratic regression (weighting factor = 1/x).
A reverse-phase HPLC column (Gemini NX, C18, 2.6 μm, 50 × 2.1 mm, Phenomenex) was used to separate the compounds and IS (mobile phase B, 0.1% FA in ACN; mobile phase A, 0.1% FA in analytical-grade water). Auto-sampling was performed using an Agilent 1200 series auto-sampler. Data acquisition and evaluation were performed using the Analyst 1.6.2 software (Applied Biosystems, Foster City, CA, United States).
Plots of concentration against time were used to determine the maximal drug concentration (Cmax), time at which Cmax is reached (Tmax), area-under-the-curve from time zero to infinity (AUC0-∞), and the elimination half-life (t1/2). Using these values, the clearance, volume of distribution, and oral bioavailability (BA) were calculated using the non-compartmental analysis (NCA) software PK Solutions version 2.0 (Summit Research Services, Montrose, CO, United States).
The drug concentrations indicated in Figure 2–7 were used to calculate the PK parameters in Table 6 via NCA. Here, the area under the murine whole-blood concentration-time graph is divided into sequential trapezoids that are summed to determine the AUC, which is used to determine t1/2, apparent volume of distribution (Vd), clearance, and percentage BA.

Mtb H37Rv = system: Mtb H37Rv; design: method as in Beteck et al., 2018; details: in vitro, Mtb H37Rv; ref Beteck et al., 2018; cited from earlier work

| SMILES | logD (physchem) | PAMPA Log Papp [1] | EH (hepatic extraction ratio) Human (in vitro) | EH (hepatic extraction ratio) Mouse (in vitro) | half-life at 0.1 M (in vitro; human) | microsomal CLint at 0.1 M (in vitro; human) | half-life at 0.1 M (in vitro; mouse) | microsomal CLint at 0.1 M (in vitro; mouse) | Vd (in vivo; iv, 5 mg/kg) | clearance (in vivo; iv, 5 mg/kg) | half-life (in vivo; iv, 5 mg/kg) | t1/2 (in vivo; iv, 5 mg/kg) | Cmax (in vivo; po, 20 mg/kg) | Tmax (in vivo; po, 20 mg/kg) | half-life (in vivo; po, 20 mg/kg) | AUC (in vivo; iv, 5 mg/kg) | 90% minimum inhibitory concentration (MIC90) (Mtb H37Rv) |
| --- | --- | --- | --- | --- | --- | --- | --- | --- | --- | --- | --- | --- | --- | --- | --- | --- | --- |
| CCCCCCCCCCOc1cc2c(=O)c(C(=O)NCCNCCO)cn(CC)c2cc1OCC [RMB043] | 0.84 | -4.8 | 0.4 | 0.51 | 1.42 h | 83 µL/min/mg | 1 h | 109 µL/min/mg | 4.6 ± 1.6 L/kg | 1.18 mL/min/kg | 8.6 ± 0.4 h | 8.6 ± 0.4 h | 5.6 ± 1.4 µM | 0.5 h | 6.2 ± 0.8 h | 10068.4 ± 127.8 µmol·min/L | 4.18 µM |
| CCCCCCCCCCOc1cc2c(=O)c(C(=O)NCCOCCO)cn(CCO)c2cc1OCC [RMB073] | 0.36 | -4.5 | <0.43 | <0.3 | > 2.5 h | 7.78 µL/min/mg | > 2.5 h | 15 µL/min/mg | 3.9 ± 0.5 L/kg | 0.575 mL/min/kg | 15.3 ± 3.2 h | 15.3 ± 3.2 h | 2 ± 0.03 µM | 0.5 h | 11.6 ± 1.3 h | 15940.0 ± 400.0 µmol·min/L | 1.88 µM |
| CCCCCCCCCCOc1cc2c(=O)c(C(=O)NCCOCCO)cn(CC)c2cc1OCC [RMB041] | 0.48 | -4.8 | <0.43 | <0.3 | > 2.5 h | 16 µL/min/mg | > 2.5 h | 26.8 µL/min/mg | 1.2 ± 0.03 L/kg | 0.385 mL/min/kg | 62.3 ± 6.73 h | 62.3 ± 6.7 h | 5.4 ± 0.4 µM | 0.5 h | 23.4 ± 2.5 h | 29250.4 ± 309.0 µmol·min/L | 1.61 µM |

Source: publication PMC6387968, “An in vitro ADME and in vivo Pharmacokinetic Study of Novel TB-Active Decoquinate Derivatives” (Frontiers in Pharmacology, 2019)
